# Legend:
# [1] = tested on: cancers with genetic profiles driven by strong Hsp90 clients; experiment: Earlier clinical results for ganetespib, monotherapy and with taxanes; assay type: in vivo
# Text: The clinical study aims to achieve this goal by using ganetespib to target what may be a central driver of ovarian cancer aggressiveness and metastatic ability, namely mutant p53.
# [2] = tested on: ovarian, fallopian tube or peritoneal cancer; experiment: Phase I/II study of ganetespib in combination with paclitaxel; assay type: in vivo; conditions: combination with weekly paclitaxel 80 mg/m^2
# Experimental: A Phase I/II trial of weekly paclitaxel in combination with ganetespib in patients with recurrent, platinum-resistant ovarian, fallopian tube or primary peritoneal cancer is performed. A total of up to 74 patients (up to 18 Phase I patients and up to 56 Phase II patients) with recurrent, platinum-resistant epithelial ovarian, primary peritoneal and fallopian tube carcinoma is enrolled.
# Phase I Treatment: Paclitaxel IV given over 1 hour at 80 mg/m^2 days 1, 8 and 15 of a 28-day cycle. Ganetespib IV at a starting dose of 100 mg/m^2 on days 1, 8 and 15 of a 28-day cycle. Ganetespib escalation will follow a modified 3+3 design and escalate from 100 mg/m^2 to 125 mg/m^2 to 150 mg/m^2.
# Phase II treatment (after MTD): Phase II TPaclitaxel IV given over 1 hour at 80 mg/m^2 days 1, 8 and 15 of a 28-day cycle. PLUS ganetespib IV at MTD/MED from Phase I on days 1, 8 and 15 of a 28-day cycle.
# [3] = tested on: advanced non-small-cell lung cancer (NSCLC) of non-squamous histology; experiment: Phase I study of ganetespib in combination with docetaxel in advanced NSCLC; assay type: in vivo, patients; conditions: ganetespib 150 mg/m^2 in combination with docetaxel (75 or 60 mg/m^2)
# Experimental: In the first cohort (Cohort 1), patients with advanced solid tumor malignancies are treated with 75 mg/m^2 of ganetespib monotherapy. In the second cohort (Cohort 2), patients with advanced solid tumor malignancies are treated with 150 mg/m^2 of ganetespib monotherapy. In the third cohort (Cohort 3), patients with advanced NSCLC are treated with ganetespib (150 mg/m^2) in combination with docetaxel (75 mg/m^2). In the case of intolerability of the third cohort's combination regimen, in a fourth cohort (Cohort 4), patients with advanced NSCLC are treated with ganetespib (150 mg/m^2) in combination with docetaxel (60 mg/m^2).
# Patients with advanced NSCLC, excluding patients with squamous cell histology, are administered ganetespib and docetaxel in Cohort 3.
# The purpose of this cohort is to explore the PK and tolerability of ganetespib in combination with docetaxel. Patients enrolled in this cohort receive ganetespib 150 mg/m^2 in combination with docetaxel 75 mg/m^2.
# On Day 1 of each 3-week treatment cycle, ganetespib and docetaxel are administered as separate 1-hour intravenous infusions. Administration of ganetespib precedes the administration of docetaxel. There is a 1-hour “rest” period following the end of the ganetespib infusion and prior to docetaxel infusion.
# On Day 15, patients receive 150 mg/m^2 single-agent ganetespib administered via a 1-hour intravenous infusion. […]
# [4] = combination of ganetespib and taxanes
smiles,measurement,setting,value
CC(C)c1cc(-c2n[nH]c(=O)n2-c2ccc3c(ccn3C)c2)c(O)cc1O [ganetespib],activity,[1]; [4],favorable
same,safety profile,[1]; [4],favorable
same,tumor responses,"[1]; ganetespib monotherapy, cancers with genetic profiles driven by strong Hsp90 clients",durable objective tumor responses
same,efficacy,[2],efficacious
same,safety profile,[2],good safety profile
same,efficacy,[3],efficacious
